Active and inactive are the calls of the source.
Tests used:
[1] = target: T1, Sentrin-specific protease 7 (Homo sapiens, UniProt Q9BQF6); assay type: functional;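 note: Luminescence-based dose-response confirmation of ultra-high-throughput screening hits, measuring inhibition of SENP7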
T1 sequence (Q9BQF6 whole entry): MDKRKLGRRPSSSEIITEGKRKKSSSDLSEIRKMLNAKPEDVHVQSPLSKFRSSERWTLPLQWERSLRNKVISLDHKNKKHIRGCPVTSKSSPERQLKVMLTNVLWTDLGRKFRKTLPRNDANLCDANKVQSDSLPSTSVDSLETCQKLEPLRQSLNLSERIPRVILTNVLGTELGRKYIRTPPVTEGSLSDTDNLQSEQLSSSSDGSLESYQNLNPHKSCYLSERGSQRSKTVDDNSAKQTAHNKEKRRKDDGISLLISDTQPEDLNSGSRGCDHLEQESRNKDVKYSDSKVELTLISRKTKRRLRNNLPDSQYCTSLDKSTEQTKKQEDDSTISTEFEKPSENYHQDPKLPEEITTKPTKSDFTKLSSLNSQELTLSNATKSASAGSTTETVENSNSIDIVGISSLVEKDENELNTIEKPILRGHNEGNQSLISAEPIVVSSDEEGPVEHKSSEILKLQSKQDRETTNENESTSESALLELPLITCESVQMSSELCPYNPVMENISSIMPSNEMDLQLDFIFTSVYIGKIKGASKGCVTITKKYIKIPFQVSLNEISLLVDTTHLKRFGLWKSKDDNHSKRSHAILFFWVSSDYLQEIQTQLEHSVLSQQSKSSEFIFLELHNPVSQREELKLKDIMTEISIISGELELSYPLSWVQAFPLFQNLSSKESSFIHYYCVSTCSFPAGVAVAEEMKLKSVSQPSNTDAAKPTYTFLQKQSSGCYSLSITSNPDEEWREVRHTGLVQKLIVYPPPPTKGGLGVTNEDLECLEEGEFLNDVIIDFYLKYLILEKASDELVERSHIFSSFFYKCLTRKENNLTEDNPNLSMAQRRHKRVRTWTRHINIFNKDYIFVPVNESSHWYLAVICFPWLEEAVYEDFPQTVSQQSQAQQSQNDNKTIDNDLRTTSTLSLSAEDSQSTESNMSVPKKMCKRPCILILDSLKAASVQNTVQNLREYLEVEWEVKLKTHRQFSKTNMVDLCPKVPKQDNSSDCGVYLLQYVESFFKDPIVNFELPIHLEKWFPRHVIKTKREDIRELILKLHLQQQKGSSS

[2] = target: Protein kinase C delta type (Homo sapiens, UniProt Q05655); assay type: functional
[3] = target: Testis-specific serine/threonine-protein kinase 2 (Homo sapiens, UniProt Q96PF2); assay type: functional;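 note: part of the Navigating the Kinome panel, target entry STK22B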
[4] = target: MAP kinase-activated protein kinase 5 (Homo sapiens, UniProt Q8IW41); assay type: functional;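 note: measured as one member of a kinome panel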
[5] = target: Serine/threonine-protein kinase PAK 1 (Homo sapiens, UniProt Q13153); assay type: functional
[6] = target: Tyrosine-protein kinase ITK/TSK (Homo sapiens, UniProt Q08881); assay type: functional;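 note: affinity for ITK measured as one member of a broad kinase panel profiling binding across the kinome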
Insulin receptor = Insulin receptor (Homo sapiens, UniProt P06213); assay type: functional;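 note: insulin receptor kinase tested as one member of a kinome-wide kinase panel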
[7] = target: Mitogen-activated protein kinase 13 (Homo sapiens, UniProt O15264); assay type: functional
[8] = target: Serine/threonine-protein kinase pim-3 (Homo sapiens, UniProt Q86V86); assay type: functional;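 note: value obtained as one member of a broad kinase panel profiling effort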
[9] = target: Tyrosine-protein kinase Srms (Homo sapiens, UniProt Q9H3Y6); assay type: functional;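 note: SRMS measured as one member of a kinome-wide kinase profiling panel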
Ephrin type-A receptor 2 = Ephrin type-A receptor 2 (Homo sapiens, UniProt P29317); assay type: functional;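 note: EPHA2 tested as one member of a kinome-wide kinase panel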
[10] = target: T2, Interleukin-1 receptor-associated kinase 4 (Homo sapiens, UniProt Q9NWZ3); assay type: functional
T2 sequence (Q9NWZ3 whole entry): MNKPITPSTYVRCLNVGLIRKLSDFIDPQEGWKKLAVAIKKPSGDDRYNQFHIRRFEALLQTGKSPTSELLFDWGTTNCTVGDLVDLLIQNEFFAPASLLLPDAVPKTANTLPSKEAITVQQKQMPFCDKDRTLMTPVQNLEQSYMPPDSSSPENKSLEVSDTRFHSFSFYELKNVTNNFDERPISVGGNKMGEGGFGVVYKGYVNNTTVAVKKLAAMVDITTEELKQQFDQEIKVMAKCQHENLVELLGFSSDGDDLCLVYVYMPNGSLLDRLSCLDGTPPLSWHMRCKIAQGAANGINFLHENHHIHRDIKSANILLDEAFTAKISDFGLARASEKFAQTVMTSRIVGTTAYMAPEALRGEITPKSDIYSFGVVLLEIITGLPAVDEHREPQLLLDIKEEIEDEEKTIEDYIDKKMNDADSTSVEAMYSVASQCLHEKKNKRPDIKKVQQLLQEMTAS

[11] = target: 3-phosphoinositide-dependent protein kinase 1 (Homo sapiens, UniProt O15530); assay type: functional;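 note: value comes from the Navigating the Kinome panel, PDPK1 member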
Streptokinase A = target: T3, Streptokinase A (Streptococcus pyogenes serotype M1, UniProt P10520); test: S. pyogenes streptokinase expression inhibitors, potency, dose response, plasminogen activation absorbance, OD405 (AID 1914); assay type: functional, Streptococcus pyogenes M1 GAS;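 note: secreted streptokinase activity via plasminogen activation per viability signal from cell pellet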
T3 sequence (P10520 whole entry): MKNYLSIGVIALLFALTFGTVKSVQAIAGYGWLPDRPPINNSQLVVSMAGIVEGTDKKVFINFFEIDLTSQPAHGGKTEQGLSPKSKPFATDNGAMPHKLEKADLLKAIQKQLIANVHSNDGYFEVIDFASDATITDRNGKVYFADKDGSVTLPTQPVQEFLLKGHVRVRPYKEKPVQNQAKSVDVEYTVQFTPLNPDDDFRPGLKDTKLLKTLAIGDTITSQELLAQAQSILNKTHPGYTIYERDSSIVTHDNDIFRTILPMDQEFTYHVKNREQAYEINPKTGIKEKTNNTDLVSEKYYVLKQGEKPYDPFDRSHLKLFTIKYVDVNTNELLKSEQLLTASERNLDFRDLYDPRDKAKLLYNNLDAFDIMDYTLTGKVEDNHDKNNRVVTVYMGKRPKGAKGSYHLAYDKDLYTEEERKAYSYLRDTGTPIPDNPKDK

[12] = Shn3 3'UTR reporter inhibitors, dose response, cell-based, Clone20 osteoblasts, firefly luciferase, cherry-picked (AID 624132); assay type: functional;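 note: firefly luciferase luminescence from reporter carrying the Shn3 3'UTR in osteoblasts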

Insulin receptor, sequence (P06213 28-758 limits assumed): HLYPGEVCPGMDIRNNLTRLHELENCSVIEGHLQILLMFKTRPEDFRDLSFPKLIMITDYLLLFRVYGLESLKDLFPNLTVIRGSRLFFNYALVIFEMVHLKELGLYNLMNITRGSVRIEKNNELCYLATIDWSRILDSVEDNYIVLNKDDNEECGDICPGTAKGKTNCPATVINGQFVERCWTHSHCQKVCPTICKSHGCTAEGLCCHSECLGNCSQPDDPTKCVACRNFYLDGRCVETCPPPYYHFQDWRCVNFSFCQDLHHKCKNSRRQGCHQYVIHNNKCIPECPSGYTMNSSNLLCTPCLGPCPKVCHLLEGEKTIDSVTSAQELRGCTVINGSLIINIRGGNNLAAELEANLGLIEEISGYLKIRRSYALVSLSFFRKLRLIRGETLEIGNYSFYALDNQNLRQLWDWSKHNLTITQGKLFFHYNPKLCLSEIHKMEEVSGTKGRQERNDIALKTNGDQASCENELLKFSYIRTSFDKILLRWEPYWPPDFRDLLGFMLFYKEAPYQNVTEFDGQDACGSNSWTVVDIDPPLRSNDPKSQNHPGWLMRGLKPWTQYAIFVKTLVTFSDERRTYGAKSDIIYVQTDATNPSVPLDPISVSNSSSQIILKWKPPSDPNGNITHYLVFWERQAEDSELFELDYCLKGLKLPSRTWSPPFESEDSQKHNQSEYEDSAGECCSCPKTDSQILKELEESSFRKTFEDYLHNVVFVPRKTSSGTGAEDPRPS
Insulin receptor, sequence (P06213 763-1382 limits assumed): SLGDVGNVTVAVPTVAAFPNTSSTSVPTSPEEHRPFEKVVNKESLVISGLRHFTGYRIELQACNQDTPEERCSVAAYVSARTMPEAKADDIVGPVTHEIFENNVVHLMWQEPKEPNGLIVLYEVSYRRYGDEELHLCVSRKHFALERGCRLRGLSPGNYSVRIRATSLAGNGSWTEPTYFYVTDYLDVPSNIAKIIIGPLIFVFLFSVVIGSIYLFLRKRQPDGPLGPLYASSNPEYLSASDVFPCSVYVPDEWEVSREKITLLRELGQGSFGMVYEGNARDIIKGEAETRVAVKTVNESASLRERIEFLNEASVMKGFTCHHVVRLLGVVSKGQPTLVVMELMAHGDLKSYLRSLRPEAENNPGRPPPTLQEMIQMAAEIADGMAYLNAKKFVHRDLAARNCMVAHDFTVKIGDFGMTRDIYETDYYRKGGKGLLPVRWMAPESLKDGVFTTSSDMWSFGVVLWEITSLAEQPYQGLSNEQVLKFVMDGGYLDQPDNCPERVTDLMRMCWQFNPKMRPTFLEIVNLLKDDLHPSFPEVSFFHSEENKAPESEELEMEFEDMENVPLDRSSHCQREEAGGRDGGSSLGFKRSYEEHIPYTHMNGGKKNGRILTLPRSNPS
Tyrosine-protein kinase Srms, sequence (Q9H3Y6 whole entry): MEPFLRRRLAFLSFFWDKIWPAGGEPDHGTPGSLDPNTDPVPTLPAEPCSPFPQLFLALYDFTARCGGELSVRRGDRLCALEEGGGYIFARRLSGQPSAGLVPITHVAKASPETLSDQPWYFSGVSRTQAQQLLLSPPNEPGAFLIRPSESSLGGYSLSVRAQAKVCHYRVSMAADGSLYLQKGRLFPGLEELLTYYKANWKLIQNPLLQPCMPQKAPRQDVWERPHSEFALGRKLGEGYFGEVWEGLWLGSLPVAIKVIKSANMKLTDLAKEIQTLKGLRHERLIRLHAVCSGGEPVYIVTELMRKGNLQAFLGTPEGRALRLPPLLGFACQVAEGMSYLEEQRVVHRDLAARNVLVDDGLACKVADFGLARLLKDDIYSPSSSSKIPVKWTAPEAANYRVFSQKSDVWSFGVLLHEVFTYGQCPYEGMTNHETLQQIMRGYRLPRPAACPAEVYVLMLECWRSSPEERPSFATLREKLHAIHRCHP
3-phosphoinositide-dependent protein kinase 1, sequence (O15530 whole entry): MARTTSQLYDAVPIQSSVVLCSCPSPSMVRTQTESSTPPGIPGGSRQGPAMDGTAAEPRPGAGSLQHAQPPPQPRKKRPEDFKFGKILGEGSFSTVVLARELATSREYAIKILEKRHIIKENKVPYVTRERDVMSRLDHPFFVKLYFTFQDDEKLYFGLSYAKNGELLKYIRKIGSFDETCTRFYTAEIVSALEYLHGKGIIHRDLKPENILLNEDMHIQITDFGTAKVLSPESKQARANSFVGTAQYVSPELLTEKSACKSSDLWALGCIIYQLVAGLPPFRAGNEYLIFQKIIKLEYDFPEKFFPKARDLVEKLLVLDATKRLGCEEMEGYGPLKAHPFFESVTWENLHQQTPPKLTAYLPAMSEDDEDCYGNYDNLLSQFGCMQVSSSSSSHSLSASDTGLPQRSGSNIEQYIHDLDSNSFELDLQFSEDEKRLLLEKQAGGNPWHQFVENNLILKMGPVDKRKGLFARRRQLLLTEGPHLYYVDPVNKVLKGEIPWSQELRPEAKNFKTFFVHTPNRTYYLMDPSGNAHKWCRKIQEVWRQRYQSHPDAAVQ
Ephrin type-A receptor 2, sequence (P29317 whole entry): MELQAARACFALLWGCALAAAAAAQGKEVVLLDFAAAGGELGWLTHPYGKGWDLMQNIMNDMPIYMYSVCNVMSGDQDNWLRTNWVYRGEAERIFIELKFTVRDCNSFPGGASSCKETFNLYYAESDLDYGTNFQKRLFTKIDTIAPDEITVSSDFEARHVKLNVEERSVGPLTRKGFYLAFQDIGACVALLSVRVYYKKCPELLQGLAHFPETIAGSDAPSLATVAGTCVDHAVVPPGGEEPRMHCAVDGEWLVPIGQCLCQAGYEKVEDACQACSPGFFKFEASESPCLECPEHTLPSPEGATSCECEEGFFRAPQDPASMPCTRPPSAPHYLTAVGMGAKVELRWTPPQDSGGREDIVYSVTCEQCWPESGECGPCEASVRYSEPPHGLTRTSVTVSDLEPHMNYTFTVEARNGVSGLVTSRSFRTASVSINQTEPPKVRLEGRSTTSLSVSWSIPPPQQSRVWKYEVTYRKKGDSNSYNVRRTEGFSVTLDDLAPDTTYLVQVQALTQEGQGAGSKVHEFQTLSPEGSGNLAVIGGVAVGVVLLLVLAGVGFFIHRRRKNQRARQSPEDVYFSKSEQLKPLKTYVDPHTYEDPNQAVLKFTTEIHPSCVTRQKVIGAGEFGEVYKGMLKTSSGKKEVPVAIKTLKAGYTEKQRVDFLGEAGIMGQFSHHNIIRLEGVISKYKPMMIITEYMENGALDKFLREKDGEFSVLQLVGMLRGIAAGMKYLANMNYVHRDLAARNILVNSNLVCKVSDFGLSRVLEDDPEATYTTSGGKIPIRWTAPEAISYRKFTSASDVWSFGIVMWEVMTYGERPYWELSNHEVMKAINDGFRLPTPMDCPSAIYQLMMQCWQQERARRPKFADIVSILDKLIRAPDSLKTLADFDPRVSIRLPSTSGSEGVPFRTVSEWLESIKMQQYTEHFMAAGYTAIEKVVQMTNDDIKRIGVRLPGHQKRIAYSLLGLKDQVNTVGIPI
Mitogen-activated protein kinase 13, sequence (O15264 whole entry): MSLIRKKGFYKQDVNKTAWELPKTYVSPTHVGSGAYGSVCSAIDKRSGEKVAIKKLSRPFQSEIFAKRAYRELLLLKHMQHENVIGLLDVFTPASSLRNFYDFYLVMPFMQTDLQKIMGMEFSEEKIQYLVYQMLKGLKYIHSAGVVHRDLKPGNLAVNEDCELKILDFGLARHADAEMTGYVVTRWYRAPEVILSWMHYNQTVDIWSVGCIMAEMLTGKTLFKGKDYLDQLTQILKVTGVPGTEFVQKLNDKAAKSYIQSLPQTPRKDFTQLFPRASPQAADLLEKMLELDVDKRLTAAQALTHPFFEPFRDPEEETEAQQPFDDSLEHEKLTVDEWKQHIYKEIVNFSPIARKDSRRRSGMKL
Testis-specific serine/threonine-protein kinase 2, sequence (Q96PF2 whole entry): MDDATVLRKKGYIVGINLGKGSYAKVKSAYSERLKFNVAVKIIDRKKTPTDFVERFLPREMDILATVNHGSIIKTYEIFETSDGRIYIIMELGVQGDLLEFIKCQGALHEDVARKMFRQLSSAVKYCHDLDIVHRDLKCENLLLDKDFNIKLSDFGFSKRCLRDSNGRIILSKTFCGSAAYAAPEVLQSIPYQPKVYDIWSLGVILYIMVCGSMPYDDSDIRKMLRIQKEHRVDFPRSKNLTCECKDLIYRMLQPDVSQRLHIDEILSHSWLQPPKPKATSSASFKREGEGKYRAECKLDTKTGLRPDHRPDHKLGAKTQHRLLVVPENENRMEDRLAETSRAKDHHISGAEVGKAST
Tyrosine-protein kinase ITK/TSK, sequence (Q08881 whole entry): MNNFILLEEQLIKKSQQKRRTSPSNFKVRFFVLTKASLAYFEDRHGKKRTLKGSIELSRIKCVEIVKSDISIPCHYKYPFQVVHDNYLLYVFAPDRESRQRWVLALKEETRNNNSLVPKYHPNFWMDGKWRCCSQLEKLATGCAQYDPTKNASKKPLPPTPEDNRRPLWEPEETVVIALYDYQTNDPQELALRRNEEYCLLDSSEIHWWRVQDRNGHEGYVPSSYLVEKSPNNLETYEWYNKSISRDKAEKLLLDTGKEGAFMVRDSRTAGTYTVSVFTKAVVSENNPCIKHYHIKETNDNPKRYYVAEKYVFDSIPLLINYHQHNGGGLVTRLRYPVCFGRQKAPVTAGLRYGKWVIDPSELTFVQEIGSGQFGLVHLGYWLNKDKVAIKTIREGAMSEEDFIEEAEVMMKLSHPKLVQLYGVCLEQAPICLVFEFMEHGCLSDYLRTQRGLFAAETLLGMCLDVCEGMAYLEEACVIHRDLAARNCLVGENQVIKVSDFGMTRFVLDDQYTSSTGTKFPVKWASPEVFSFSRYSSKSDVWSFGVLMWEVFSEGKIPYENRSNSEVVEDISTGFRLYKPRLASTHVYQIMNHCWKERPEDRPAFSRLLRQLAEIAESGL

With `OCC[n+]1c2ccccc2nc2ccc(N3CCOCC3)cc21` as the compound, how does the IC50 [1] read?
The IC50 was 28000 nM (active).

For `CS(=O)(=O)N(Cc1ccc2[nH]c(=O)c3cccn3c2c1)C1CC1`, which Ki [2] is on record?
Its Ki is > 7940 nM (inactive).

What about the Ki [3] of the same compound?
The Ki was 39.8 nM (active).

What about the Ki [4] of the same compound?
Its Ki is 10 nM (active).

What about the Ki [5] of the same compound?
The Ki was 3160 nM (active).

What about the Ki [6] of the same compound?
The Ki was > 1580 nM (inactive).

And the Ki (Insulin receptor)?
The Ki was > 5010 nM (inactive).

What about the Ki [7] of the same compound?
Its Ki is 251 nM (active).

What about the Ki [8] of the same compound?
Its Ki is 2510 nM (active).

And the Ki [9]?
Its Ki is 631 nM (active).

What about the Ki (Ephrin type-A receptor 2) of the same compound?
The Ki was > 3160 nM (inactive).

And the Ki [10]?
The Ki was > 10000 nM (inactive).

And the Ki [11]?
The Ki was 79.4 nM (active).

With `Cc1cc(NC(c2ccc(Cl)cc2)c2ccc3cccnc3c2O)no1` (stereo not given) as the compound, how does the EC50 (Streptokinase A) read?
Its EC50 is > 150000 nM (not active).

What about the AC50 [12] of the same compound?
Its AC50 is 1050 nM (active).

Source: ChEMBL document CHEMBL1201862, “PubChem BioAssay data set” (2004)
